pIC50: −log10 of the molar value.
What was measured:
myeloperoxidase (MPO) [1] = target: T1, myeloperoxidase (MPO) (Homo sapiens (Human), UniProt P05164); experiment: MPO chlorination assay (APF assay); format: biochemical; conditions: potency range class
Method in brief: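 Chlorinating activity followed by APF cleavage to fluorescein (485/535 nm, 3 min kinetic read) after adding APF and 10 μM H2O2. Beforehand, 200 pM enzyme, compound and 120 mM NaCl sat 10 min at room temperature in 100 mM KPi, pH 7.4. Initial-rate slopes gave % inhibition; IC50 by Hill-slope fit.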

myeloperoxidase (MPO) [2] = target: T1, myeloperoxidase (MPO); experiment: MPO peroxidation assay (Amplex Red assay); format: biochemical; conditions: potency range class
Method in brief: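 IC50 values come from a four-parameter fit of rates taken from the linear 180-540 s portion of a 15 min kinetic read of resorufin (Ex 535/Em 590 nm). Amplex Red (200 μM) plus 10 mM H2O2 was added after a 10 min room-temperature preincubation of inhibitor with 200 pM MPO and 40 nM H2O2 in 100 mM KPi, pH 7.4.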

T1 sequence (P05164 49-745): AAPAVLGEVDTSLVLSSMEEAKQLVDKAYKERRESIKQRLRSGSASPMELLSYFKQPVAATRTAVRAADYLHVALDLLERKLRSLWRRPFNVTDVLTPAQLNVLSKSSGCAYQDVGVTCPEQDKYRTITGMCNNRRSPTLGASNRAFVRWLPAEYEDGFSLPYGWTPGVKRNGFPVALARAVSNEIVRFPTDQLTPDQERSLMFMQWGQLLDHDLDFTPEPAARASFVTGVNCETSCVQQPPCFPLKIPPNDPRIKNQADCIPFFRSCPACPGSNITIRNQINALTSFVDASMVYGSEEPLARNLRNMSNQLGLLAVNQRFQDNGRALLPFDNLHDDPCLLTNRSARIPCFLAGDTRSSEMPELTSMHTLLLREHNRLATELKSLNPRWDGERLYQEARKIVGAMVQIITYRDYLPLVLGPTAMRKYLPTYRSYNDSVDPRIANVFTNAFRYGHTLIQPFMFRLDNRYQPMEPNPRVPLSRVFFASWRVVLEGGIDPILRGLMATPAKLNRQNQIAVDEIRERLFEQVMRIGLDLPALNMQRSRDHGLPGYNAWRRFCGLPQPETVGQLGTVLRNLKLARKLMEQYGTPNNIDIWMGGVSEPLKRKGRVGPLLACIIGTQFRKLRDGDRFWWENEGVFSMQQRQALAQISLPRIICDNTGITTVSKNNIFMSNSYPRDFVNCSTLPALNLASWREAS

pIC50 (myeloperoxidase (MPO) [1])	pIC50 (myeloperoxidase (MPO) [2])	SMILES
6.00 to 7.00	6.00 to 7.00	Nc1cc(Cc2cnn(Cc3cccc(-c4ccc(OC(F)(F)F)cc4)c3)c2)c2nn[nH]c2n1 [Example 155, 7-{[1-({3-[4-(Trifluoromethoxy)phenyl]phenyl}methyl)-1H-pyrazol-4-yl]methyl}-3H-[1,2,3]triazolo[4,5-b]pyridin-5-amine]
7.00 to 9.00	7.00 to 9.00	COc1ncc(-c2cccc(Cn3cc(Cc4cc(N)nc5[nH]nnc45)cn3)c2)cn1 [Example 156, 7-[(1-{[3-(2-Methoxypyrimidin-5-yl)phenyl]methyl}-1H-pyrazol-4-yl)methyl]-3H-[1,2,3]triazolo[4,5-b]pyridin-5-amine]
7.00 to 9.00	7.00 to 9.00	Nc1cc(Cn2nnc3ccccc32)c2nn[nH]c2n1 [Example 160, 7-(1H-1,2,3-Benzotriazol-1-ylmethyl)-3H-[1,2,3]triazolo[4,5-b]pyridin-5-amine]
5.00 to 6.00	6.00 to 7.00	Nc1cc(Cn2ncc(-c3ccccc3)n2)c2nn[nH]c2n1 [Example 161, 7-[(4-Phenyl-2H-1,2,3-triazol-2-yl)methyl]-3H-[1,2,3]triazolo[4,5-b]pyridin-5-amine]
6.00 to 7.00	6.00 to 7.00	Nc1cc(Cn2cc(-c3ccccc3)nn2)c2nn[nH]c2n1 [Example 162, 7-[(4-Phenyl-1H-1,2,3-triazol-1-yl)methyl]-3H-[1,2,3]triazolo[4,5-b]pyridin-5-amine]
5.00 to 6.00	5.00 to 6.00	Nc1cc(Cn2nc3cccc(Cl)c3n2)c2nn[nH]c2n1 [Example 164, 7-[(4-Chloro-2H-1,2,3-benzotriazol-2-yl)methyl]-3H-[1,2,3]triazolo[4,5-b]pyridin-5-amine]
6.00 to 7.00	7.00 to 9.00	Nc1cc(Cn2nnc3cc(Cl)ccc32)c2nn[nH]c2n1 [Example 168, 7-[(5-Chloro-1H-1,2,3-benzotriazol-1-yl)methyl]-3H-[1,2,3]triazolo[4,5-b]pyridin-5-amine]
6.00 to 7.00	6.00 to 7.00	Nc1cc(Cn2nnc(-c3ccccc3)n2)c2nn[nH]c2n1 [Example 169, 7-[(5-Phenyl-2H-1,2,3,4-tetrazol-2-yl)methyl]-3H-[1,2,3]triazolo[4,5-b]pyridin-5-amine]
6.00 to 7.00	7.00 to 9.00	Nc1cc(Cc2cnn(Cc3cccc(-c4nccs4)c3)c2)c2nn[nH]c2n1 [Example 177, 7-((1-(3-(Thiazol-2-yl)benzyl)-1H-pyrazol-4-yl)methyl)-3H-[1,2,3]triazolo[4,5-b]pyridin-5-amine]
6.00 to 7.00	7.00 to 9.00	Nc1cc(Cc2cnn(Cc3cccc(-n4cncn4)c3)c2)c2nn[nH]c2n1 [Example 178, 7-((1-(3-(1H-1,2,4-Triazol-1-yl)benzyl)-1H-pyrazol-4-yl)methyl)-3H-[1,2,3]triazolo[4,5-b]pyridin-5-amine]
6.00 to 7.00	7.00 to 9.00	Cn1nnc2cc(Cn3cc(Cc4cc(N)nc5[nH]nnc45)cn3)ccc21 [Example 179, 7-({1-[(1-Methyl-1H-1,2,3-benzotriazol-5-yl)methyl]-1H-pyrazol-4-yl}methyl)-3H-[1,2,3]triazolo[4,5-b]pyridin-5-amine]
6.00 to 7.00	7.00 to 9.00	Nc1cc(Cc2cnn(CCC3CCNCC3)c2)c2nn[nH]c2n1 [Example 183, 7-({1-[2-(Piperidin-4-yl)ethyl]-1H-pyrazol-4-yl}methyl)-3H-[1,2,3]triazolo[4,5-b]pyridin-5-amine]
6.00 to 7.00	7.00 to 9.00	Nc1cc(Cc2cnn(CC3CCN(Cc4ccccc4)C3)c2)c2nn[nH]c2n1 (stereo not drawn) [Example 184, 7-({1-[(1-Benzylpyrrolidin-3-yl)methyl]-1H-pyrazol-4-yl}methyl)-3H-[1,2,3]triazolo[4,5-b]pyridin-5-amine]
6.00 to 7.00	7.00 to 9.00	CNc1nc2ccc(Cn3cc(Cc4cc(N)nc5[nH]nnc45)cn3)cc2s1 [Example 186, 6-{[4-({5-Amino-3H-[1,2,3]triazolo[4,5-b]pyridin-7-yl}methyl)-1H-pyrazol-1-yl]methyl}-N-methyl-1,3-benzothiazol-2-amine]

Continued, compound first:

SMILES	pIC50 (myeloperoxidase (MPO) [1])	pIC50 (myeloperoxidase (MPO) [2])
Nc1cc(Cc2cnn(Cc3ccc4c(c3)CNCC4)c2)c2nn[nH]c2n1 [Example 153, 7-{[1-(1,2,3,4-Tetrahydroisoquinolin-7-ylmethyl)-1H-pyrazol-4-yl]methyl}-3H-[1,2,3]triazolo[4,5-b]pyridin-5-amine]	7.00 to 9.00	7.00 to 9.00
N#Cc1cccc(-c2ccc(Cn3cc(Cc4cc(N)nc5[nH]nnc45)cn3)cc2)c1 [Example 154, 3-(4-{[4-({5-Amino-3H-[1,2,3]triazolo[4,5-b]pyridin-7-yl}methyl)-1H-pyrazol-1-yl]methyl}phenyl)benzonitrile]	6.00 to 7.00	6.00 to 7.00
Nc1cc(Cc2cnn(Cc3cccc(-c4cnoc4)c3)c2)c2nn[nH]c2n1 [Example 157, 7-[(1-{[3-(1,2-Oxazol-4-yl)phenyl]methyl}-1H-pyrazol-4-yl)methyl]-3H-[1,2,3]triazolo[4,5-b]pyridin-5-amine]	6.00 to 7.00	6.00 to 7.00
N#Cc1cccc(Cn2cc(Cc3cc(N)nc4[nH]nnc34)cn2)c1 [Example 158, 3-{[4-({5-Amino-3H-[1,2,3]triazolo[4,5-b]pyridin-7-yl}methyl)-1H-pyrazol-1-yl]methyl}benzonitrile]	7.00 to 9.00	7.00 to 9.00
CN1CCc2cc(Cn3cc(Cc4cc(N)nc5[nH]nnc45)cn3)ccc2C1 [Example 159, -((1-((2-Methyl-1,2,3,4-tetrahydroisoquinolin-6-yl)methyl)-1H-pyrazol-4-yl)methyl)-3H-[1,2,3]triazolo[4,5-b]pyridin-5-amine]	6.00 to 7.00	7.00 to 9.00
Nc1cc(Cn2nc3ccc(Cl)cc3n2)c2nn[nH]c2n1 [Example 163, 7-[(5-Chloro-2H-1,2,3-benzotriazol-2-yl)methyl]-3H-[1,2,3]triazolo[4,5-b]pyridin-5-amine]	5.00 to 6.00	5.00 to 6.00
Nc1cc(Cn2nnc3cccc(Cl)c32)c2nn[nH]c2n1 [Example 165, 7-[(7-Chloro-1H-1,2,3-benzotriazol-1-yl)methyl]-3H-[1,2,3]triazolo[4,5-b]pyridin-5-amine]	6.00 to 7.00	6.00 to 7.00
Nc1cc(Cn2nnc3c(Cl)cccc32)c2nn[nH]c2n1 [Example 166]	5.00 to 6.00	5.00 to 6.00
Nc1cc(Cn2nnc3ccc(Cl)cc32)c2nn[nH]c2n1 [Example 167, 7-[(6-Chloro-1H-1,2,3-benzotriazol-1-yl)methyl]-3H-[1,2,3]triazolo[4,5-b]pyridin-5-amine]	6.00 to 7.00	6.00 to 7.00
Nc1cc(Cn2nnc3ccc(Cc4ccccc4)cc32)c2nn[nH]c2n1 [Example 170, 7-[(6-Benzyl-1H-1,2,3-benzotriazol-1-yl)methyl]-3H-[1,2,3]triazolo[4,5-b]pyridin-5-amine]	6.00 to 7.00	6.00 to 7.00
Nc1cc(Cn2nnc3cc(Cc4ccccc4)ccc32)c2nn[nH]c2n1 [Example 171, 7-[(5-Benzyl-1H-1,2,3-benzotriazol-1-yl)methyl]-3H-[1,2,3]triazolo[4,5-b]pyridin-5-amine]	6.00 to 7.00	6.00 to 7.00
COc1cc2ccc(Cn3cc(Cc4cc(N)nc5[nH]nnc45)cn3)cc2cn1 [Example 172, 7-((1-((3-Methoxyisoquinolin-7-yl)methyl)-1H-pyrazol-4-yl)methyl)-3H-[1,2,3]triazolo[4,5-b]pyridin-5-amine]	6.00 to 7.00	7.00 to 9.00
COc1cc2cc(Cn3cc(Cc4cc(N)nc5[nH]nnc45)cn3)ccc2cn1 [Example 173, 7-((1-((3-Methoxyisoquinolin-6-yl)methyl)-1H-pyrazol-4-yl)methyl)-3H-[1,2,3]triazolo[4,5-b]pyridin-5-amine]	6.00 to 7.00	7.00 to 9.00
COc1nccc2ccc(Cn3cc(Cc4cc(N)nc5[nH]nnc45)cn3)cc12 [Example 174, 7-((1-((1-Methoxyisoquinolin-7-yl)methyl)-1H-pyrazol-4-yl)methyl)-3H-[1,2,3]triazolo[4,5-b]pyridin-5-amine]	6.00 to 7.00	7.00 to 9.00
Nc1cc(Cc2cnn(Cc3ccc4cc[nH]c(=O)c4c3)c2)c2nn[nH]c2n1 [Example 175, 7-((4-((5-Amino-3H-[1,2,3]triazolo[4,5-b]pyridin-7-yl)methyl)-1H-pyrazol-1-yl)methyl)isoquinolin-1(2H)-one]	6.00 to 7.00	7.00 to 9.00
Nc1cc(Cc2cnn(Cc3ccc4c(c3)CNC4)c2)c2nn[nH]c2n1 [Example 176, 7-((1-(Isoindolin-5-ylmethyl)-1H-pyrazol-4-yl)methyl)-3H-[1,2,3]triazolo[4,5-b]pyridin-5-amine]	7.00 to 9.00	7.00 to 9.00
Nc1cc(Cc2cnn(Cc3ccc4ncsc4c3)c2)c2nn[nH]c2n1 [Example 180, 7-{[1-(1,3-Benzothiazol-6-ylmethyl)-1H-pyrazol-4-yl]methyl}-3H-[1,2,3]triazolo[4,5-b]pyridin-5-amine]	6.00 to 7.00	7.00 to 9.00
CC1NCCc2cc(Cn3cc(Cc4cc(N)nc5[nH]nnc45)cn3)ccc21 (stereo not drawn) [Example 181, 7-({1-[(1-Methyl-1,2,3,4-tetrahydroisoquinolin-6-yl)methyl]-1H-pyrazol-4-yl}methyl)-3H-[1,2,3]triazolo[4,5-b]pyridin-5-amine]	7.00 to 9.00	7.00 to 9.00
Nc1cc(Cc2cnn(Cc3cccc(CN4CCNCC4)c3)c2)c2nn[nH]c2n1 [Example 182, 7-[(1-{[3-(Piperazin-1-ylmethyl)phenyl]methyl}-1H-pyrazol-4-yl)methyl]-3H-[1,2,3]triazolo[4,5-b]pyridin-5-amine]	6.00 to 7.00	7.00 to 9.00

Reference: US10407422B2, “Triazolopyridine inhibitors of myeloperoxidase” (priority 2015, dated 2019)
